Data published in paper PMC7408396, “IPEC-J2 rMdr1a, a New Cell Line with Functional Expression of Rat P-glycoprotein Encoded by Rat Mdr1a for Drug Screening Purposes” (Pharmaceutics, 2020).

What was measured:
[1] = design: method as in PMID 27194478; conditions: murine / rodent animal models; cited from earlier work
[2] = biological target: T1, human P-gp (Homo sapiens, UniProt P08183); design: expressed in transfected cells; host or cells: IPEC-J2 (porcine intestinal epithelial cells), previously established IPEC-J2 MDR1 line; method as in PMID 27194478; conditions: MDCK II MDR1 cell monolayers; cited from earlier work
T1 sequence (P08183 whole entry): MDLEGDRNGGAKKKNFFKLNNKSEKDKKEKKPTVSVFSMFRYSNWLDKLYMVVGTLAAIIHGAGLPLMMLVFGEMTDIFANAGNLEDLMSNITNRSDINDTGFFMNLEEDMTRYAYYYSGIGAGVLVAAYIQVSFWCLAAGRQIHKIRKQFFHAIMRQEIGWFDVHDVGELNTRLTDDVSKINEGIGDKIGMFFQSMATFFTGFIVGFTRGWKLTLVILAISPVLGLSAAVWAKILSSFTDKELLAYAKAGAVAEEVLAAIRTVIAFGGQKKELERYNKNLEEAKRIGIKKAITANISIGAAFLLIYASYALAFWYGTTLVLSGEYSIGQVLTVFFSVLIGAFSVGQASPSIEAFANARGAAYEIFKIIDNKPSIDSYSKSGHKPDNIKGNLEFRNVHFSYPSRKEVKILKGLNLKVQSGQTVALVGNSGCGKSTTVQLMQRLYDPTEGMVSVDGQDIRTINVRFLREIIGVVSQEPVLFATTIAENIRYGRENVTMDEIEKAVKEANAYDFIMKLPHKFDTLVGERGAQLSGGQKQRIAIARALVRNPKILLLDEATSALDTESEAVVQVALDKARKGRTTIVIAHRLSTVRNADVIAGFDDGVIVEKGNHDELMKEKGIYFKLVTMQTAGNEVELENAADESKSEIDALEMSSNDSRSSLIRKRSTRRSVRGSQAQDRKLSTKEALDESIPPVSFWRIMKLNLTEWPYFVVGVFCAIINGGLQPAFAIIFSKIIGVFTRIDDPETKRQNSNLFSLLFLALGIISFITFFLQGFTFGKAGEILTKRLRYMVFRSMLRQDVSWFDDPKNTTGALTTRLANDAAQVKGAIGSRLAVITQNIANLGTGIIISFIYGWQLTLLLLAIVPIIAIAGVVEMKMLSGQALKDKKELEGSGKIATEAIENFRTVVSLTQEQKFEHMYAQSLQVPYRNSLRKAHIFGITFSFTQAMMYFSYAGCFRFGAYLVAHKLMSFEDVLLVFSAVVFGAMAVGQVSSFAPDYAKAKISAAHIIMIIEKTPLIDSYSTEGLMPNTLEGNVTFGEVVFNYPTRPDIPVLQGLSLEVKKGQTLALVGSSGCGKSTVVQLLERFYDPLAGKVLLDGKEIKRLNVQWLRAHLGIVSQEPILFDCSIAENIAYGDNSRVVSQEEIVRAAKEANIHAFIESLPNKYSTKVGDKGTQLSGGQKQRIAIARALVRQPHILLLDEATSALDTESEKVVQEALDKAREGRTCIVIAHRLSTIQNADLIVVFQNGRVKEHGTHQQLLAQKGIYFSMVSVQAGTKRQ

[3] = biological target: T1, human P-gp; conditions: IPEC-J2 MDR1 cells overexpressing human P-gp; cited from earlier work
[4] = biological target: T2, P-gp (human MDR1) (Homo sapiens, UniProt P08183); test: Bidirectional transport across IPEC-J2 MDR1 cell monolayers; assay type: in vitro ADME; conditions: for Papp A→B at 120 min / Papp B→A at 120 min: pH 7.4, Figure 5, mean ± SEM; for Papp A→B at 120 min: read-out: apparent permeability A–B; for Papp B→A at 120 min: read-out: apparent permeability B–A; for efflux ratio at 120 min: pH 7.4, Figure 5 comparison series
T2 construct: expressed in transfected cells; host or cells: IPEC-J2 (porcine intestinal epithelial cells), previously established IPEC-J2 MDR1 line
T2 sequence (P08183 whole entry): as above
Method: (§1) The cell monolayers were washed and pre-incubated in transport buffer consisting of 10 mM HEPES, 0.05% BSA and 0.038% sodium bicarbonate in HBSS pH 7.4 for 15 min at 37 °C on a shaking table (Unimax 2010, Heidolph, Schwabach, Germany) with a rotation of 75–90 rpm. The buffer was removed, and the transport experiments were initiated by the addition of donor solution containing radio-labelled compound in transport buffer in a concentration of 0.5 or 1 μ Ci/mL to either the apical or the basolateral chamber. […] Receiver samples were collected after 15, 30, 45, 60, 90 and 120 min from the basolateral (100 µL) or the apical chamber (50 µL), respectively.
(§2) Based on data from transport experiments, the apparent permeability coefficients (Papp) were calculated using Equation (1):(1) Papp = J/C0 = Qt/C0At where J denotes the steady-state flux (nmol·cm^−2·min^−1), C0 is the initial concentration in the donor compartment, A is the cross-sectional area of the permeable inserts (1.13 cm^2) and Qt represents the accumulated amount of drug in the receiver compartment at time t in minutes (corrected for the dilution arising from replacement of the sampled volume with blank transport buffer).

[5] = Bidirectional transport across IPEC-J2 wild-type (WT) cell monolayers; assay type: in vitro ADME, porcine; conditions: pig, pH 7.4, mean ± SEM
Method: as §1, §2

[6] = tested on: P-gp (rat Mdr1a); test: in vitro; conditions: for efflux ratio at 120 min: pH 7.4, efflux ratio, Figure 5 comparison series
[7] = tested on: mouse Mdr1a; design: method as in PMID 17045309; conditions: mouse Mdr1a-transfected LLC-PK1 and MDCK monolayers; cited from earlier work
[8] = biological target: T1, human P-gp; design: expressed in transfected cells; method as in PMID 17045309; conditions: cell monolayers overexpressing human P-gp; cited from earlier work
[9] = tested on: P-gp (rat Mdr1a and human MDR1); test: in vitro; conditions: human, pH 7.4, apparent permeability values (span over both directions), A–B and B–A, across both IPEC-J2 rMdr1a and IPEC-J2 MDR1 monolayers
[10] = tested on: IPEC-J2 mock cells; test: Puromycin selection of IPEC-J2 mock cells; assay type: cell-based, porcine; conditions: 2 μg/mL puromycin
Method: (§3) The rat Mdr1a cDNA, codon-optimized for expression in Sus scrofa, was synthesized by Geneart (Regensburg, Germany) and inserted in the pcDNA3.1 (+) cloning vector under control of a cytomegalovirus (CMV) promoter (see Supplemental Figure S1) and purchased from Geneart (Regensburg, Germany). […] Cells were seeded on permeable Transwell® inserts (1.13 cm^2 surface area, 0.4 µm pore size) at a density of 4 × 10^4 cells/insert and cultured for 15–18 days (with culture medium change three times per week) prior to experimentation.

[11] = tested on: rMDR1a-transfected cells; test: Puromycin selection of rMdr1a-transfected IPEC-J2 cells; assay type: cell-based, porcine; conditions: 2 μg/mL puromycin
Method: as §3

[12] = tested on: rat Mdr1a P-gp; conditions: IPEC-J2 rMdr1a monolayers
[13] = tested on: rat Mdr1a; design: method as in PMID 16779700; conditions: LLC-PK1 cells transfected with rat Mdr1a; cited from earlier work
[14] = tested on: human MDR1; design: method as in PMID 16779700; conditions: LLC-PK1 cells transfected with human MDR1; cited from earlier work
[15] = tested on: IPEC-J2 mock cells; test: Bidirectional transport across IPEC-J2 mock cell monolayers (empty pcDNA 3.1(+) vector); conditions: 0.4 µM zosuquidar, Supplemental Figure S2
[16] = pH 7.4, apparent permeability A–B, IPEC-J2 rMdr1a monolayers, Figure 5, mean ± SEM

SMILES: CNCC[C@@H](Oc1ccccc1C)c1ccccc1 [atomoxetine]
- Kp,uu (unbound drug concentration in CNS relative to plasma) [1]: > 2
- efflux ratio (ER) [2]: > 3

SMILES: CN(C)CCCC1(c2ccc(F)cc2)OCc2cc(C#N)ccc21 (stereo not shown) [citalopram]
- P-gp substrate identification [3]: P-gp substrates

SMILES: C[C@H]1O[C@@H](O[C@H]2[C@@H](O)C[C@H](O[C@H]3[C@@H](O)C[C@H](O[C@H]4CC[C@@]5(C)[C@H](CC[C@@H]6[C@@H]5C[C@@H](O)[C@]5(C)[C@@H](C7=CC(=O)OC7)CC[C@]65O)C4)O[C@@H]3C)O[C@@H]2C)C[C@H](O)[C@@H]1O [digoxin]
- Papp A→B at 120 min [4]: 0.28 ± 0.03 ×10⁻⁶ cm/s
- Papp A→B at 120 min ([5]; read-out: PA-B (apparent permeability, apical to basolateral)): 0.05 ± 0.05 ×10⁻⁶ cm/s
- Papp B→A at 120 min ([5]; read-out: PB-A (apparent permeability, basolateral to apical)): 0.13 ± 0.17 ×10⁻⁶ cm/s
- Papp at 120 min ([6]; pH 7.4, PB-A (apparent permeability in the efflux direction), late passages (14–16)): 16 ± 1 ×10⁻⁶ cm/s
- Papp A→B at 120 min [6, 16]: 0.35 ± 0.03 ×10⁻⁶ cm/s
- Papp A→B at 120 min ([6]; pH 7.4, permeability in the A–B direction, early passages (5–7)): 0.37 ± 0.1 ×10⁻⁶ cm/s
- Papp A→B at 120 min ([6]; pH 7.4, permeability in the A–B direction, late passages (14–16)): 0.68 ± 0.62 ×10⁻⁶ cm/s

SMILES: CC[C@@H](C(N)=O)N1CCCC1=O [levetiracetam]
- polarized transport [7]: showed polarized transport
- polarized transport [8]: no polarized transport could be observed

SMILES: OC[C@@H](O)[C@@H](O)[C@H](O)[C@H](O)CO [mannitol]
- Papp A→B at 120 min [4]: 0.25 ± 0.02 ×10⁻⁶ cm/s
- Papp B→A at 120 min [4]: 0.37 ± 0.04 ×10⁻⁶ cm/s
- efflux ratio at 120 min [4]: 1.4
- Papp at 120 min [9]: 0.25 to 0.44 ×10⁻⁶ cm/s
- Papp B→A at 120 min ([6]; pH 7.4): 0.44 ± 0.11 ×10⁻⁶ cm/s
- Papp A→B at 120 min [6, 16]: 0.33 ± 0.12 ×10⁻⁶ cm/s
- efflux ratio at 120 min ([6]; IPEC-J2 rMdr1a monolayers): 1.5
- Papp at 120 min ([6]; pH 7.4, paracellular permeability, IPEC-J2 rMdr1a monolayers, conclusion summary): ~0.3 ×10⁻⁶ cm/s

SMILES: Cc1cc2c(s1)Nc1ccccc1N=C2N1CCN(C)CC1 [olanzapine]
- Papp A→B at 120 min [4]: 23 ± 4 ×10⁻⁶ cm/s
- Papp B→A at 120 min [4]: 40 ± 3 ×10⁻⁶ cm/s
- Papp A→B at 120 min ([6]; pH 7.4): 24 ± 3 ×10⁻⁶ cm/s
- Papp B→A at 120 min ([6]; pH 7.4): 44 ± 3 ×10⁻⁶ cm/s

SMILES: OCCN1CCN(CCCN2c3ccccc3Sc3ccc(Cl)cc32)CC1 [perphenazine]
- Kp,uu (unbound drug concentration in CNS relative to plasma) [1]: > 2
- efflux ratio (ER) [2]: > 3

SMILES: O=C1NC(=O)C(c2ccccc2)(c2ccccc2)N1 [phenytoin]
- polarized transport [7]: showed polarized transport
- polarized transport [8]: no polarized transport could be observed

SMILES: COc1ccc(C[C@H](N)C(=O)N[C@H]2[C@@H](O)[C@H](n3cnc4c(N(C)C)ncnc43)O[C@@H]2CO)cc1 [puromycin]
- cell survival under selection [10]: died within three days
- cell survival under selection [11]: survived the treatment

SMILES: CN1CCN(CCCN2c3ccccc3Sc3ccc(C(F)(F)F)cc32)CC1 [trifluoperazine]
- Kp,uu (unbound drug concentration in CNS relative to plasma) [1]: > 2
- efflux ratio (ER) [2]: > 3

SMILES: CC[C@]1(O)C[C@@H]2CN(CCc3c([nH]c4ccccc34)[C@@](C(=O)OC)(c3cc4c(cc3OC)N(C)[C@H]3[C@@](O)(C(=O)OC)[C@H](OC(C)=O)[C@]5(CC)C=CCN6CC[C@]43[C@@H]65)C2)C1 [vinblastine]
- Papp A→B at 120 min [4]: 1.5 ± 0.2 ×10⁻⁶ cm/s
- Papp B→A at 120 min [4]: 19 ± 6 ×10⁻⁶ cm/s
- efflux ratio at 120 min [4]: 12.4
- efflux ratio ([12]; Figure 5 comparison series): 13
- efflux ratio [13]: 18.4
- efflux ratio [14]: 12.5
- Papp B→A at 120 min ([6]; pH 7.4): 20 ± 5 ×10⁻⁶ cm/s
- Papp A→B at 120 min [6, 16]: 1.6 ± 0.2 ×10⁻⁶ cm/s
- efflux ratio at 120 min ([6]; IPEC-J2 rMdr1a monolayers): 12.8

SMILES: O[C@@H](COc1cccc2ncccc12)CN1CCN([C@@H]2c3ccccc3[C@@H]3[C@H](c4ccccc42)C3(F)F)CC1 [zosuquidar]
- effect on efflux transport of digoxin ([12]; 0.4 µM zosuquidar): completely blocked
- effect on digoxin transport [15]: did not affect digoxin transport
